We go through five molecules from patent publication US20030004123A1, “Targeted gene transfer using G protein coupled receptors” (priority 1997, published 2003).

Structures are written as SMILES.

For data set [1], the system named is WD human airway epithelial cells. In words: Cl- secretory response of WD human airway epithelial cultures to lumenal agonists. The format is cell-based. The following applies: agonist at 10^−4M, FIG. 3. From the text: Epithelial cells are derived from CF and non-CF nasal and bronchial airway epithelia using procedures similar to those described by Gray et al. 1996. Am. J Respir. Cell Mol. Biol. 14, 104-112. Resected nasal turbinates or portions of mainstem/lobar bronchi representing excess donor tissue are obtained at the time of lung transplantation under the auspices of the University of North Carolina at Chapel Hill Institutional Committee on the Protection of the Rights of Human Subjects. Epithelial cells are removed from the specimens by protease XIV digestion as described (Wu, R., et al., 1985. Am. Rev. Respir. Dis. 132, 311-320), but omitting the filtration step. 1-2×10^6 cells are plated per 100 mm tissue culture dish in modified LHC9 medium. Lechner, J. F. and Laveck, M. A. 1985. J. Tiss. Cult. Meth. 9, 43-48. The modifications include increasing the EGF concentration to 25 ng/ml, adjusting the retinoic acid concentration to 5×10^−8 M, and supplementation with 0.5 mg/ml bovine serum albumin and 0.8% bovine pituitary extract. At approximately 75% confluence, the cells are harvested by trypsinization and passage 1 cells are plated at a density of 2.5×10^5 cells on Transwell-Col inserts (Coming-Costar, 24 mm diameter, 0.4 μm pore size), in modified medium. The medium is similar to the supplemented LHC9 except that a 50:50 mixture of LHC Basal (Biofluids) and DMEM-H is used as the base, amphotericin and gentamycin are omitted and the EGF concentration is reduced to 0.5 ng/ml. After the cells grow to confluence (4-6 days) the apical surface of the cultures are given an air-liquid interface for another 25-30 days until use.
Investigations were carried out to identify which 7-TM receptors, if any, are localized in the apical membrane of WD human airway epithelial cells. Cultures of WD cells were exposed to NECA (an A2b receptor agonist), isoproterenol, bradykinin, or ATP (all at 10^−4M), and Cl-secretory responsiveness was determined.

Data set [2] has as its target T1, HA-tagged human P2Y2 receptor (Homo sapiens, UniProt P41231).
T1 construct: expressed in transfected cells; host or cells: A9 cells (retroviral gene transfer)
In words: Agonist-induced internalization of HA-P2Y2 receptor in A9 cells. In kind it is cell-based. The following applies: ATPγS 10^−4 M, within 45 minutes. The text has this: To test the concept that the P2Y2 receptor is a candidate receptor for targeting based on the ability to bind and internalize an exogenous ligand, we have obtained CHO and A9 cells (both of which are not transducible by AdV) that express the HA-tagged human P2Y2 receptor (HA tag on the extracellular N-terminus) by retroviral gene transfer. HA-P2Y2 receptor expressing A9 cells, but not control cells, stain with fluorescently labeled anti-HA Abs under resting conditions. With agonist [ATPγS (10^−4 M)] exposure, approximately 80% of the receptors are internalized within 45 minutes. The internalization of P2Y2 receptor is mediated via coated pits.

Data set [3] has as its target T2, human P2Y2-receptor (HA epitope-tag) in 1321N1 human astrocytoma cells (Homo sapiens, UniProt P41231).
T2 construct: expressed in transfected cells; host or cells: 1321N1 human astrocytoma cells
In words: Internalization of P2Y2-HA receptor in astrocytoma cells (immunofluorescence, ELISA). In kind it is cell-based. The following applies: 30 min ATPγS exposure.

Data set [4] concerns the target T2, human P2Y2-receptor (HA epitope-tag) in 1321N1 human astrocytoma cells. To be noted: ELISA, ATPγS exposures of 1 hr; cited from earlier work.
For a further data set, the target named is T3, P2Y2 receptors (Homo sapiens, UniProt P41231).
T3 construct: expressed in transfected cells; host or cells: astrocytoma cells
The experiment in a line: Inositol phosphate formation in astrocytoma cells expressing P2Y2 receptors. In kind it is cell-based. To be noted: FIG. 9A. From the text:
FIG. 9A is a graphical representation of a comparison of agonist potency of U2P4 and UTP in astrocytoma cells expressing P2Y2 receptors.

Data set [5] can be described thus: Metabolic stability in cystic fibrosis sputum. In kind it is in vitro ADME. The following applies: compared with UTP, FIG. 9B. From the text: FIG. 9B is a graphical representation of the metabolic stability of U2P4 compared with UTP in cystic fibrosis sputum.
Biologically active analogs of UTP that are more resistant to biological hydrolysis than UTP have been developed for linkage to vectors. The dinucleotide U2P4 has useful properties.

T2 sequence (P41231 whole entry): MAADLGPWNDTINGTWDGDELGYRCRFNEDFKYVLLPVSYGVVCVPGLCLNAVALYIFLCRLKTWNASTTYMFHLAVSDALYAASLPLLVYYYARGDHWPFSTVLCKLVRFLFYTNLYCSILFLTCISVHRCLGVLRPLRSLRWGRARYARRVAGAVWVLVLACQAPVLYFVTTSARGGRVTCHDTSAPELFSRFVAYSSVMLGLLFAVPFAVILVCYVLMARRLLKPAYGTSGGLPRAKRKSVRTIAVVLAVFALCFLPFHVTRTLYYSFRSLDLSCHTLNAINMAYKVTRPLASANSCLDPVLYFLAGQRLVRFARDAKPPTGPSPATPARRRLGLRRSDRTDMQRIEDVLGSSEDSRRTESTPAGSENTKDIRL
T1 sequence (P41231 whole entry): as above
T3 sequence (P41231 whole entry): as above

With `Nc1ncnc2c1ncn2[C@@H]1O[C@H](COP(=O)(O)OP(=O)(O)OP(=O)(O)O)[C@@H](O)[C@H]1O` [ATP], the Cl-secretory responsiveness entry in data set [1] is “the greatest response”.

Turning to `Nc1ncnc2c1ncn2[C@@H]1O[C@H](COP(=O)(O)OP(=O)(O)OP(O)(O)=S)[C@@H](O)[C@H]1O` [ATPγS], the receptors internalized result in data set [2] is on record as “approximately 80%”. Further, the “plasma membrane immunoreactivity of P2Y2-HA receptor” value in data set [3] was “clear loss of immunoreactivity from the plasma membrane”. For the same molecule, the “internalization efficiency (loss of receptor sites)” value in data set [4] is 80%.

As for `O=c1ccn([C@@H]2O[C@H](COP(=O)([O-])OP(=O)([O-])OP(=O)([O-])OP(=O)([O-])OC[C@H]3O[C@@H](n4ccc(=O)[nH]c4=O)[C@H](O)[C@@H]3O)[C@@H](O)[C@H]2O)c(=O)[nH]1.[Na+].[Na+].[Na+].[Na+]` [Example U2P4], the “agonist potency relative to UTP (inositol phosphate release)” value at P2Y2 receptors is listed as “equipotent with UTP”. The “hydrolysis in cystic fibrosis (CF) sputum” value in data set [5] is given as “resistant to hydrolysis”.

Regarding `CCNC(=O)[C@H]1O[C@@H](n2cnc3c(N)ncnc32)[C@H](O)[C@@H]1O` [NECA], the Cl-secretory responsiveness entry in data set [1] was “a Cl-secretory response was detected”.

For the molecule `CC(C)NCC(O)c1ccc(O)c(O)c1` (centres unmarked) [isoproterenol], in data set [1], the Cl-secretory responsiveness entry was “a Cl-secretory response was detected”.
